Laboratory results taken from publication PMC8111447 (Frontiers in Pharmacology, 2021).

How the values were obtained:
Format in all cases: biochemical
EGFR^d746–750 = EGFR^d746–750 (Homo sapiens, UniProt P00533, DEL746-750); assay: EGFR kinase inhibition assay (HTRF); conditions: 30 μmol/L ATP, no pre-incubation, n = 3
Procedure: (§1) The sequence of the substrate is proprietary to CisBio. […] Kinase activity assays were performed in a total reaction volume of 3 μl per well. […] The substrate mixture (1.5 μl) consisted of 1 μmol/L TK substrate, 30 μmol/L ATP, 1 mmol/L DTT, and 10 mmol/L MgCl2. […] The plates were incubated for 1 h before being read on Pherastar using standard HTRF settings. […] There was no pre-incubation of the test compounds with the enzyme/substrate mixture prior to ATP addition. For IC50 calculation, data were analyzed using XLFit version 5.3.

EGFR^L861Q = EGFR^L861Q (Homo sapiens, UniProt P00533, L861Q); assay: EGFR kinase inhibition assay (HTRF); conditions: 30 μmol/L ATP, no pre-incubation, n = 3
Procedure: as §1

EGFR^d746–750/T790M = EGFR^d746–750/T790M (Homo sapiens, UniProt P00533, DEL746-750/T790M); assay: EGFR kinase inhibition assay (HTRF); conditions: 30 μmol/L ATP, no pre-incubation, n = 3
Procedure: as §1

EGFR^L858R/T790M = target: T1, EGFR^L858R/T790M (Homo sapiens, UniProt P00533, L858R/T790M); assay: EGFR kinase inhibition assay (HTRF); conditions: 30 μmol/L ATP, no pre-incubation, n = 3
T1 construct: with amino acids 696-end containing the mutations T790M and L858R; GST (N); purchased Millipore
Procedure: as §1

EGFR^WT = EGFR^WT (Homo sapiens, UniProt P00533); assay: EGFR kinase inhibition assay (HTRF); conditions: 30 μmol/L ATP, no pre-incubation, n = 3
Procedure: as §1

EGFR^L858R = EGFR^L858R (Homo sapiens, UniProt P00533, L858R); assay: EGFR kinase inhibition assay (HTRF); conditions: 30 μmol/L ATP, no pre-incubation, n = 3
Procedure: as §1

Flt3 (D835Y) (h) = target: T2, Flt3 (D835Y) (h) (Homo sapiens, UniProt P36888, D835Y); assay: Kinase panel (Eurofins); conditions: n = 2; for inhibition at 1 µM: at 1 μmol/L; for IC50: read-out: IC50 kinase inhibition
T2 construct: purchased Eurofins
T2 sequence (P36888 27-993 D835Y): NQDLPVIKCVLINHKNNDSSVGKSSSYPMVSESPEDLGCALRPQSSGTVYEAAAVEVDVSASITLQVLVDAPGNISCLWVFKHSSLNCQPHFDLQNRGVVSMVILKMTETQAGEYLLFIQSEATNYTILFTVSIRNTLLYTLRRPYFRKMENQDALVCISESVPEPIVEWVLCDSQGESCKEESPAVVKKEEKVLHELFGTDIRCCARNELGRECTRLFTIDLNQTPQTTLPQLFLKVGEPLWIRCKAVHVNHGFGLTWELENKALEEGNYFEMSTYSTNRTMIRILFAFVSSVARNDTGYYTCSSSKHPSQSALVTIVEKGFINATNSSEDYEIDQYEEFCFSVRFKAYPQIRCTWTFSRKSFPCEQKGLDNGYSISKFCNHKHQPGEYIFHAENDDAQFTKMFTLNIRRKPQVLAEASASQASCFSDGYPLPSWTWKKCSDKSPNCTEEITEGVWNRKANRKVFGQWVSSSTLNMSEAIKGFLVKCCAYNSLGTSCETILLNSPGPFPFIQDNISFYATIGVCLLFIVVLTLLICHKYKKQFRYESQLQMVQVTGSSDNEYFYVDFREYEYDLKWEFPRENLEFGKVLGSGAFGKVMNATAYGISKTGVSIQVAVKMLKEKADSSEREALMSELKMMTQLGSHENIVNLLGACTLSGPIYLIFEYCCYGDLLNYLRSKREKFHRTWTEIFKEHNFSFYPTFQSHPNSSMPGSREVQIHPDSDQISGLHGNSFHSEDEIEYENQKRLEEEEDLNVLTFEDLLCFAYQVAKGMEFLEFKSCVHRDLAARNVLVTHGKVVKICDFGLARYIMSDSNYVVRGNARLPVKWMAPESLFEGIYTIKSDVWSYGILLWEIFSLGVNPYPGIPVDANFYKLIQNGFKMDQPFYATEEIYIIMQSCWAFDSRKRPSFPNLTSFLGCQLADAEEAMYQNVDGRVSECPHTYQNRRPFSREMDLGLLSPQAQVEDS
Description: (§2) These receptors have a methionine gatekeeper in their kinase domains, and are related to hyperglycemia in other clinical trials of EGFR TKI, such as Co-1686.

IGF-1R(h), activated = target: T3, IGF-1R(h), activated (Homo sapiens, UniProt P08069); assay: Kinase panel (Eurofins); conditions: n = 2; for inhibition at 1 µM: at 1 μmol/L; for IC50: read-out: IC50 kinase inhibition
T3 construct: purchased Eurofins
Description: as §2

Mnk2(h) = target: T4, Mnk2(h) (Homo sapiens, UniProt Q9HBH9); assay: Kinase panel (Eurofins); conditions: n = 2; for inhibition at 1 µM: at 1 μmol/L; for IC50: read-out: IC50 kinase inhibition
T4 construct: purchased Eurofins
Description: as §2

T3 sequence (P08069 31-1367): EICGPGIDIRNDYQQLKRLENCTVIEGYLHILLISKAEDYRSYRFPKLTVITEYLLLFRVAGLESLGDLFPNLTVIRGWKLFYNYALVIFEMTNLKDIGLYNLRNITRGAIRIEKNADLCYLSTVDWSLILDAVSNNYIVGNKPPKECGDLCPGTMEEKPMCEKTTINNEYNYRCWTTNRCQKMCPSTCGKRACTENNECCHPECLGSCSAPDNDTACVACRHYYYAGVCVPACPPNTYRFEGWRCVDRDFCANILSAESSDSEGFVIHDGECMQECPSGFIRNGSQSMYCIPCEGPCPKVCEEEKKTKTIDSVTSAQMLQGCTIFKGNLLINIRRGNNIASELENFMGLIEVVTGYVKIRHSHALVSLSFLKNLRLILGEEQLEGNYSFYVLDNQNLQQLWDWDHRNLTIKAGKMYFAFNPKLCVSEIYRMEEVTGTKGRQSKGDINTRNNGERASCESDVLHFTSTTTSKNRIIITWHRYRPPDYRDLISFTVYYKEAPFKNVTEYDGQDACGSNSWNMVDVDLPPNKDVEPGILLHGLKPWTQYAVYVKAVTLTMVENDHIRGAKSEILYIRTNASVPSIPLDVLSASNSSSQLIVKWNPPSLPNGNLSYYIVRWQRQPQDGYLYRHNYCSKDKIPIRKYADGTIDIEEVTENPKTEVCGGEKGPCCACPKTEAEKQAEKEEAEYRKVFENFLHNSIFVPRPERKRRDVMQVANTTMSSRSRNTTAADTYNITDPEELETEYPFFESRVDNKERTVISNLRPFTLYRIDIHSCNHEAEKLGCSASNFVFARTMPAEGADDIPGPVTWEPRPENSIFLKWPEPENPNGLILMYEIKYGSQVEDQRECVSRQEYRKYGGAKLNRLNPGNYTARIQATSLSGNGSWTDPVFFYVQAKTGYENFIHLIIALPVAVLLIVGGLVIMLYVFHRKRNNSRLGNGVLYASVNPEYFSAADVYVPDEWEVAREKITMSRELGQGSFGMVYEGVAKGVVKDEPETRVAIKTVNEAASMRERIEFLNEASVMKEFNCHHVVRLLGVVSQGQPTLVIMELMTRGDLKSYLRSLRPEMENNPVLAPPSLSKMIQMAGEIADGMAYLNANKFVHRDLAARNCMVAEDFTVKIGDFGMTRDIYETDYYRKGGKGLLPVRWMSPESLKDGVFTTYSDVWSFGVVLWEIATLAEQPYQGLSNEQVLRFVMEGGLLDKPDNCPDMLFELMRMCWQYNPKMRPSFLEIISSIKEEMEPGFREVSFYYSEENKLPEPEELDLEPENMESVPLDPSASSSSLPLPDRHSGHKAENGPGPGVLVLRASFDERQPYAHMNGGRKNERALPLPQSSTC
T4 sequence (Q9HBH9 whole entry): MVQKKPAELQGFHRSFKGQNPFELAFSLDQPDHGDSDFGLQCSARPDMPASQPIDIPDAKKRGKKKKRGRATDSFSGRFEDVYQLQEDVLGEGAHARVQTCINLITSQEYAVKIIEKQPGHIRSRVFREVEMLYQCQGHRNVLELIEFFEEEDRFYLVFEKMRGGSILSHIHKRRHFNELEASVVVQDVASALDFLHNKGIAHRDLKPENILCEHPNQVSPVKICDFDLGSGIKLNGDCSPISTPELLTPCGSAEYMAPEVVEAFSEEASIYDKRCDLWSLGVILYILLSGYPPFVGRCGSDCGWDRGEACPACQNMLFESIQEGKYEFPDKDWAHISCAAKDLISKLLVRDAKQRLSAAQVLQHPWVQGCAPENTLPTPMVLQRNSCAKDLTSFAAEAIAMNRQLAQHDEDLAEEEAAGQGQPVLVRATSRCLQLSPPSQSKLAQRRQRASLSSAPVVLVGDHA
EGFR^WT, sequence (P00533 25-1210): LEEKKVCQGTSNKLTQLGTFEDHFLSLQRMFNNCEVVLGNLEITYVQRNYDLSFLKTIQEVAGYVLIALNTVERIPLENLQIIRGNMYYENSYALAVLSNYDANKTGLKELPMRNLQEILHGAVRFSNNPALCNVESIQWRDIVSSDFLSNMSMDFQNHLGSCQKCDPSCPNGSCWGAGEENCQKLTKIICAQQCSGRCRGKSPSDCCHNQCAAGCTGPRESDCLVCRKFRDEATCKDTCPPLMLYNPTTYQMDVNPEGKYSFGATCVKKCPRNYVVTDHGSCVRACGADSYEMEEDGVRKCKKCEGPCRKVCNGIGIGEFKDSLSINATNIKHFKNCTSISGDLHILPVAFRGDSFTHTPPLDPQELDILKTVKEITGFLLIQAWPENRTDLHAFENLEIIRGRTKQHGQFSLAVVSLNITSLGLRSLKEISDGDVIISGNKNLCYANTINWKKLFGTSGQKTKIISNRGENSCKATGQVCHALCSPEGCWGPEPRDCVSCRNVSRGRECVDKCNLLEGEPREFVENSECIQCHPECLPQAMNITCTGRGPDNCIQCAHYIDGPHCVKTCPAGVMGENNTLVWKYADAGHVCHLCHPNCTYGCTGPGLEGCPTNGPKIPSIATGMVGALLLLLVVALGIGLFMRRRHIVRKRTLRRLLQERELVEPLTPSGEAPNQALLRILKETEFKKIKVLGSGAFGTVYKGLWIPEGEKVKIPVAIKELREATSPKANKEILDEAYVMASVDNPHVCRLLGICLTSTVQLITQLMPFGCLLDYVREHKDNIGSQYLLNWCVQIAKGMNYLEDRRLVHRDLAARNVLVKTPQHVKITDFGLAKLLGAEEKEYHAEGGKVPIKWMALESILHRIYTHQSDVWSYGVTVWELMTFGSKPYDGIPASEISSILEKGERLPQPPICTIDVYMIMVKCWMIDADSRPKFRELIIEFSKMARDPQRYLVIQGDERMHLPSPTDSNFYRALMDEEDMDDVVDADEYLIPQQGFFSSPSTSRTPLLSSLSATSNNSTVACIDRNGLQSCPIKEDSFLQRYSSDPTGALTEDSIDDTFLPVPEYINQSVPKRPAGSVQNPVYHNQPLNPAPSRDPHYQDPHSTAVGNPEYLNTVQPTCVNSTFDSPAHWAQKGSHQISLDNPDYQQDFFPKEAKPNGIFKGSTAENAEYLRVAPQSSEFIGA
T1 sequence (P00533 696-1210 T790M/L858R): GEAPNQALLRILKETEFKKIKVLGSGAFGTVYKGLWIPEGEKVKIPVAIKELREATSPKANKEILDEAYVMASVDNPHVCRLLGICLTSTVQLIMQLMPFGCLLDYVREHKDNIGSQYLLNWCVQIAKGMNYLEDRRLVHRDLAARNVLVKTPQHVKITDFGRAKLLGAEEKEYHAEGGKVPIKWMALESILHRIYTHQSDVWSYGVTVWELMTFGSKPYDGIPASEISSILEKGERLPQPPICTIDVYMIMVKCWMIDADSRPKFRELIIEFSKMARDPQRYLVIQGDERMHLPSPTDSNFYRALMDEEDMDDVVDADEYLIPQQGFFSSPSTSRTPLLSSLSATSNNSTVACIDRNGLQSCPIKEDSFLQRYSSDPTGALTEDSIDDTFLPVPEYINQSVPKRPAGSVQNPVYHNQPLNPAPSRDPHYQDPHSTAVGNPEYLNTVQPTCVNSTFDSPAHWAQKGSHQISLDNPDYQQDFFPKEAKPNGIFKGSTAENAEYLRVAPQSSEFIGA
EGFR^d746–750/T790M, sequence (P00533 with tags, fused parts or gaps DEL746-750/T790M): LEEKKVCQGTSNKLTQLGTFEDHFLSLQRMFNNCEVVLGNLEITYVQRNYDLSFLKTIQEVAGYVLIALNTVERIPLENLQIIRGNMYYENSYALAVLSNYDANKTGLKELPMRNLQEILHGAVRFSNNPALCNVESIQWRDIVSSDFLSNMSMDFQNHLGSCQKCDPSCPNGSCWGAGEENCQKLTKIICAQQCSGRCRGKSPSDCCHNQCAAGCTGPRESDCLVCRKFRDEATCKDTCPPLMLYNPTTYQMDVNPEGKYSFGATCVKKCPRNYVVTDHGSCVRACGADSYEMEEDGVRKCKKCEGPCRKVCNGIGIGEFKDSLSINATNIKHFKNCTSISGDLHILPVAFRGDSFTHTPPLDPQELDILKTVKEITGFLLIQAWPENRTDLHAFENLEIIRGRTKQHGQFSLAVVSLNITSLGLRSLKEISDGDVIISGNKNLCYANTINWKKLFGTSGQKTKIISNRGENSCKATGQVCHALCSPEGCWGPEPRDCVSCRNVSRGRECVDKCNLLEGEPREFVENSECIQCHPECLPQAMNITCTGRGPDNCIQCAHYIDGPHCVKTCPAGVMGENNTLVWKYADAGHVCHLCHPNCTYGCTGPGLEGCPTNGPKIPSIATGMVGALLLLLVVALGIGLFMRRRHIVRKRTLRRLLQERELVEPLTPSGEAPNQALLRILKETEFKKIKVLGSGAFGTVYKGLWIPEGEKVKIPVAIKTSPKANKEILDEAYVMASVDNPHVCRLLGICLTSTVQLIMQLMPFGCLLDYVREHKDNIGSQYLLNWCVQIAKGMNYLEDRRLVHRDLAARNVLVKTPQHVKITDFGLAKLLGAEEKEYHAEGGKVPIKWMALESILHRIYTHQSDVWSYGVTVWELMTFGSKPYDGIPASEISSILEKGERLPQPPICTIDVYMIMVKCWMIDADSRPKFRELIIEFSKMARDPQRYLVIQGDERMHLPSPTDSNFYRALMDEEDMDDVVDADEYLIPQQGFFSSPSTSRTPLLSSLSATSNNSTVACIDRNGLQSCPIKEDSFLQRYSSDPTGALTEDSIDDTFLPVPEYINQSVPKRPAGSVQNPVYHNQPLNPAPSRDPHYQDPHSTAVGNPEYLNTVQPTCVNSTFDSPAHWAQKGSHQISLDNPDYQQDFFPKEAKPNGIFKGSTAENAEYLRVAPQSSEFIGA

SMILES	IC50 (EGFR^d746–750) [nM]	IC50 (EGFR^L861Q) [nM]	IC50 (EGFR^d746–750/T790M) [nM]	IC50 (EGFR^L858R/T790M) [nM]	IC50 (EGFR^WT) [nM]	IC50 (EGFR^L858R) [nM]	inhibition at 1 µM (Flt3 (D835Y) (h)) [%]	IC50 (Flt3 (D835Y) (h)) [nM]	inhibition at 1 µM (IGF-1R(h), activated) [%]	IC50 (IGF-1R(h), activated) [nM]	inhibition at 1 µM (Mnk2(h)) [%]	IC50 (Mnk2(h)) [nM]
C=CC(=O)Nc1cc(Nc2nccc(-c3c4n(c5ccccc35)CCCC4)n2)c(OC)cc1N(C)CCNC [Imp3]	1.7	32	1.1	1	144	6	99	41	64	709	69	22
C=CC(=O)Nc1cc(Nc2nccc(-c3c4n(c5ccccc35)CCCC4)n2)c(OC)cc1N(C)CCN(C)C [SH-1028]	1.4	4	0.89	0.1	18	0.7	86	78	46	499	63	23
